This note sets out measurements from patent US5770563A, “Heparin- and sulfatide binding peptides from the type I repeats of human thrombospondin and conjugates thereof” (The United States of America as represented by the …, priority 1995, dated 1998).

Where two headings read alike, the source gives them in different places. Square brackets hold non-standard residues; d marks the D form. Peptide text beside a SMILES is read from it. Mpa = O=C(O)CCS

Experiment [1] concerns the target thrombospondin binding to heparin. Briefly: Inhibition of 125I-thrombospondin binding to immobilized heparin-BSA. Further details: species or system human. The following applies: for inhibition of thrombospondin binding to heparin, in words: free peptide. The method, then: (§1) The peptides were tested as inhibitors of laminin, thrombospondin or apolipoprotein E binding to a heparin-bovine serum albumen conjugate or to a sulfatide in a solid phase assay essentially following the procedure described in Zabrenetzky et al., Cancer Res., Vol. 50, pages 5937-5942 (1990). Sulfatide (0.2 μg/well for thrombospondin binding, 0.6 μg/well for laminin binding) was immobilized in a mixture of 50 ng of phosphatidyl choline, and 30 ng of cholesterol on polyvinyl chloride microtiter plates. Heparin-BSA (0.2 μg/well) was absorbed onto polyvinyl chloride microtiter plate wells by incubation of 50 μl of Dulbecco's PBS for 2 h at 37°. The wells were emptied and filled with 50 mM tris, pH 7.8 containing 150 mM NaCl, 1 mM CaCl2, 0.025% NaN3, and 1% BSA. After 30 minutes, the wells were emptied and 30 μl of various concentrations of potential inhibitory peptides diluted in the same buffer or buffer alone and 30 μl of ^125 I-labeled laminin, thrombospondin or apolipoprotein E (0.2 μg/ml) were added to each well. After 3 hours at 4°, the wells were washed 6 times with 0.15M NaCl, cut from the plate and the bound radioactivity counted. FIGS. 1A-B and 2A-B show the level of thrombospondin binding to sulfatide and heparin-BSA, respectively, in the presence of increasing concetrations of the peptides listed. FIGS. 3 and 4A-B show the level of laminin binding to sulfatide and heparin-BSA, respectively, in the presence of increasing concentrations of the listed peptides.
Microtiter plate wells were coated with heparin-BSA. Heparin-BSA (0.2 μg/well) was adsorbed by incubation in 50 μl of Dulbecco's PBS for 2 h at 370. The wells were emptied, filled with tris-BSA, and incubated for 30 to 60 minutes. The buffer was removed, and labelled thrombospondin was added and incubated in the wells for 3 h at 40. The wells were emptied and washed 4 times with saline. The bottoms of the wells were cut from the plate and counted to quantify thrombospondin binding. Inhibition of thrombospondin binding was determined using peptides diluted in 30 μl of 50 mM tris buffer, pH 7.8, containing 110 mM NaCl, 1 mM CaCl2, 0.025% NaN3, and 1% BSA or buffer alone and 30 μl of ^125 I-labeled TSP (0.2 μg/ml).

The target in experiment [2] is thrombospondin binding to sulfatide. Briefly: Inhibition of 125I-thrombospondin binding to sulfatide. Further details: species or system human. Conditions: Table 1, free peptide. On the procedure:
as §1

For experiment [3], the target named is laminin binding to heparin. Briefly: Inhibition of 125I-laminin binding to heparin-BSA. Further details: species or system mouse. Conditions: for IC50: Table 2, free peptide. The method, then:
as §1

For experiment [4], the target named is laminin binding to sulfatide. Put plainly: Inhibition of 125I-laminin binding to sulfatide. Further details: species or system mouse. The following applies: Table 2, free peptide. The method, then:
as §1

Experiment [5] deals with apolipoprotein E binding to heparin. Put plainly: Inhibition of 125I-apolipoprotein E binding to heparin-BSA. The following applies: Table 2, free peptide; read-out: IC50 Apo E Binding to Heparin. On the procedure: as §1
The target of experiment [6] is basic fibroblast growth factor (FGF-2) binding to heparin. Put plainly: Inhibition of 125I-bFGF binding to heparin-BSA conjugate. On the procedure: Binding of ^125 I-bFGF to heparin was determined using an immobilized heparin-BSA conjugate as previously described (Guo, et al. (1992) Proc. Nat'l Acad. Sci. 89:3040-3044). ^125 I-bFGF, prepared as described by Neufeld, et al, (1985), J. Biol. Chem. 260:13860-13868, was added described above, and incubated for 2 hours at 25° C. Bound radioactivity was determined after washing and cutting the wells from the plate. FIGS. 40A, B and C show the inhibition of ^125 I-bFGF binding to heparin by a number of TSP peptide analogs.

The subject of experiment [7] is MDA MB435 breast carcinoma cells. Briefly: MDA MB435 human breast carcinoma cell proliferation. Format: cell-based. On the procedure:
Human breast carcinoma cells MDA MB435 (American Type Culture Collection) were grown in RPMI 1640 medium containing 10% fetal calf serum. Proliferation was determined as described in FIG. 18 and 44A, B and C.
Human breast carcinoma cells MDA MB435 (American Type Culture Collection) were grown in RPMI 1640 medium containing 10% fetal calf serum. Proliferation was determined in the presence of 0.5% fetal calf serum and bFGF as described in FIG. 19.

[8] abbreviates: Table 1, free peptide, read-out: IC50 Heparin Binding, inhibition of 125I-thrombospondin binding.
Where [9] appears, read: L-forward peptides, read-out: IC50 Inhibitory Activity.
Where [10] appears, read: retro-inverso peptides, free, read-out: IC50 Inhibitory Activity, Free Peptide.
The mark [11] stands for this setting: retro-inverso peptides, read-out: IC50 for Inhibition of Binding.

As for `CC[C@H](C)[C@H](NC(=O)[C@H](CC(=O)O)NC(=O)[C@H](Cc1c[nH]c2ccccc12)NC(=O)[C@@H]1CCCN1C(=O)[C@H](CO)NC(=O)[C@H](Cc1c[nH]c2ccccc12)NC(=O)[C@@H]1CCCN1C(=O)CN)C(=O)N[C@@H](CS)C(=O)N[C@@H](CO)C(=O)N[C@H](C(=O)N[C@H](C(=O)O)[C@@H](C)O)C(C)C` [Peptide 186, GPWSPWDICSVT] (H-GPWSPWDICSVT-OH), the half-inhibitory concentration (IC50) in experiment [1] (setting [8]) came out at 8.5 µM; in experiment [2], 27 µM; in experiment [3], 15 µM; in experiment [4] it was 35 µM; in experiment [5], 52 µM.
For `N[C@@H](CO)C(=O)N[C@@H](Cc1c[nH]cn1)C(=O)N[C@@H](Cc1c[nH]c2ccccc12)C(=O)N[C@@H](CO)C(=O)N1CCC[C@H]1C(=O)N[C@@H](Cc1c[nH]c2ccccc12)C(=O)N[C@@H](CO)C(=O)N[C@@H](CO)C(=O)O` [Peptide 239, SHWSPWSS] (H-SHWSPWSS-OH), the IC50 was found to be 5.2 µM in experiment [1] (setting [8]); 10 µM in experiment [2]; 11 µM in experiment [3]; 12 µM in experiment [4]; 250 µM in experiment [5]. Also, the “inhibition of thrombospondin binding to heparin, in words” value in experiment [1] is reported as “more active than the intact dodecapeptide”.
With `N[C@@H](Cc1c[nH]c2ccccc12)C(=O)N[C@@H](CO)C(=O)N1CCC[C@H]1C(=O)N[C@@H](Cc1c[nH]c2ccccc12)C(=O)N[C@@H](CO)C(=O)N[C@@H](CO)C(=O)N[C@@H](CS)C(=O)N[C@@H](CO)C(=O)O` [Peptide 240, WSPWSSCS] (H-WSPWSSCS-OH), the IC50 was determined as 66 µM in experiment [1] (setting [8]); 100 µM in experiment [2]; 100 µM in experiment [3]; 100 µM in experiment [4]; 150 µM in experiment [5].
Regarding `CC(C)[C@H](NC(=O)[C@H](CO)NC(=O)[C@H](CS)NC(=O)[C@H](CO)NC(=O)[C@H](CO)NC(=O)[C@H](Cc1c[nH]c2ccccc12)NC(=O)[C@@H]1CCCN1C(=O)[C@H](CO)NC(=O)[C@@H](N)Cc1c[nH]c2ccccc12)C(=O)N[C@H](C(=O)O)[C@@H](C)O` [Peptide 241, WSPWSSCSVT] (H-WSPWSSCSVT-OH), the half-maximal inhibitory concentration (IC50) in experiment [1] (setting [8]) was 35 µM; in experiment [2], 34 µM; in experiment [3] it was 34 µM; in experiment [4] it was 50 µM; in experiment [5] it was 180 µM.
Turning to `C[C@H](NC(=O)[C@H](Cc1c[nH]cn1)NC(=O)[C@@H](N)CO)C(=O)N[C@@H](CO)C(=O)N1CCC[C@H]1C(=O)N[C@@H](C)C(=O)N[C@@H](CO)C(=O)N[C@@H](CO)C(=O)O` [Peptide 244, SHASPASS] (H-SHASPASS-OH), the IC50 in experiment [1] (setting [8]), in experiment [2], in experiment [3] and in experiment [5] was over 200 µM throughout. Besides, the “fold less active than the natural sequence SHWSPWSS” value in experiment [1] (Trp replaced by Ala) is given as “more than 100 fold”.
`NCC(=O)NCC(=O)N[C@@H](Cc1c[nH]c2ccccc12)C(=O)N[C@@H](CO)C(=O)N[C@@H](Cc1c[nH]cn1)C(=O)N[C@@H](Cc1c[nH]c2ccccc12)C(=O)N[C@@H](CO)C(=O)N1CCC[C@H]1C(=O)N[C@@H](Cc1c[nH]c2ccccc12)C(=O)N[C@@H](CO)C(=O)N[C@@H](CO)C(=O)O` [Peptide 256, GGWSHWSPWSS] (H-GGWSHWSPWSS-OH): the “inhibition of thrombospondin binding to heparin, in words” value in experiment [1] was “decreased activity”. In addition, the “inhibition of laminin binding, in words” value in experiment [3] (free peptide) is recorded as “increased activity”. Besides, in experiment [6] (setting [9]), the IC50 is over 40 µM.
As for `CC(=O)N[C@H](CS)C(=O)N[C@H](CO)C(=O)N[C@H](CO)C(=O)N[C@H](Cc1c[nH]c2ccccc12)C(=O)N1CCC[C@@H]1C(=O)N[C@H](CO)C(=O)N[C@H](Cc1c[nH]c2ccccc12)C(=O)N[C@H](Cc1c[nH]cn1)C(=O)N[C@H](CO)C(=O)N[C@H](Cc1c[nH]c2ccccc12)C(=O)NCC(=O)NCC(=O)N[C@H](CC(=O)O)C(=O)N[C@H](CCC(N)=O)C(=O)N[C@H](CCCCN)C(=O)N[C@H](C)C(=O)N[C@H](CCCNC(=N)N)C(=O)N[C@H](CCCCN)C(N)=O` [Peptide 474, ri-amKRAKQDGGWSHWSPWSSCac] (Ac-[dC][dS][dS][dW][dP][dS][dW][dH][dS][dW]GG[dD][dQ][dK][dA][dR][dK]-NH2), the IC50 in experiment [1] (setting [10]) was determined as 0.1 µM; in experiment [6] (setting [11]), 0.95 µM.
With `CC(=O)N[C@H](CS)C(=O)N[C@H](CO)C(=O)N[C@H](CO)C(=O)N[C@H](C)C(=O)N1CCC[C@@H]1C(=O)N[C@H](CO)C(=O)N[C@H](C)C(=O)N[C@H](Cc1c[nH]cn1)C(=O)N[C@H](CO)C(=O)N[C@H](C)C(=O)NCC(=O)NCC(=O)N[C@H](CC(=O)O)C(=O)N[C@H](CCC(N)=O)C(=O)N[C@H](CCCCN)C(=O)N[C@H](Cc1ccccc1)C(=O)N[C@H](CCCNC(=N)N)C(=O)N[C@H](CCCCN)C(N)=O` [Peptide 475, ri-amKRFKQDGGASHASPASSCac] (Ac-[dC][dS][dS][dA][dP][dS][dA][dH][dS][dA]GG[dD][dQ][dK][dF][dR][dK]-NH2), the results for the half-maximal inhibitory concentration (IC50) in experiment [1] (setting [10]) and in experiment [6] (setting [11]) were 10 µM and over 20 µM, respectively.
The like results for `CC(=O)N[C@H](CS)C(=O)N[C@H](CO)C(=O)N[C@H](CO)C(=O)N[C@H](Cc1c[nH]c2ccccc12)C(=O)N1CCC[C@@H]1C(=O)N[C@H](CO)C(=O)N[C@H](Cc1c[nH]c2ccccc12)C(=O)N[C@H](Cc1c[nH]cn1)C(=O)N[C@H](CO)C(=O)N[C@H](Cc1c[nH]c2ccccc12)C(=O)NCC(=O)NCC(=O)N[C@H](C)C(=O)N[C@H](CCC(N)=O)C(=O)N[C@H](CCCCN)C(=O)N[C@H](C)C(=O)N[C@H](CCCNC(=N)N)C(=O)N[C@H](CCCCN)C(N)=O` [Peptide 476, ri-amKRAKQAGGWSHWSPWSSCac] (Ac-[dC][dS][dS][dW][dP][dS][dW][dH][dS][dW]GG[dA][dQ][dK][dA][dR][dK]-NH2) were, in that order, 0.03 µM and 0.22 µM.
With `C[C@@H](NC(=O)CCS)C(=O)N[C@H](C)C(=O)N[C@H](CO)C(=O)N[C@H](Cc1c[nH]c2ccccc12)C(=O)N[C@H](Cc1c[nH]cn1)C(=O)N[C@H](CO)C(=O)N[C@H](Cc1c[nH]c2ccccc12)C(=O)NCC(=O)N[C@H](C)C(=O)N[C@H](CCC(N)=O)C(=O)N[C@H](CCCCN)C(=O)N[C@H](C)C(=O)N[C@H](CCCNC(=N)N)C(=O)N[C@H](CCCCN)C(N)=O` [Peptide 525, ri-amKRAKQAGWSHWSAAtc] ([Mpa][dA][dA][dS][dW][dH][dS][dW]G[dA][dQ][dK][dA][dR][dK]-NH2), the 50% inhibitory concentration (IC50) in experiment [1] (setting [10]) amounted to 0.035 µM; in experiment [6] (setting [11]), 0.28 µM.
Regarding `CC(=O)N[C@@H](CCCCN)C(=O)N[C@@H](CCCNC(=N)N)C(=O)N[C@@H](C)C(=O)N[C@@H](CCCCN)C(=O)N[C@@H](CCC(N)=O)C(=O)N[C@@H](C)C(=O)NCC(=O)NCC(=O)N[C@@H](Cc1c[nH]c2ccccc12)C(=O)N[C@@H](CO)C(=O)N[C@@H](Cc1c[nH]cn1)C(=O)N[C@@H](Cc1c[nH]c2ccccc12)C(=O)N[C@@H](C)C(=O)N[C@@H](C)C(=O)N[C@@H](CS)C(N)=O` [acKRAKQAGGWSHWAACam] (Ac-KRAKQAGGWSHWAAC-NH2), the IC50 was 0.045 µM in experiment [1] (L-forward peptides, free, read-out: IC50 Inhibitory Activity, Free Peptide) and 0.41 µM in experiment [6] (setting [9]).
On to KRFKQDGGWSHWSPWSSC [Peptide 364], for which, in experiment [7] (FICOLL conjugate), the “inhibition of MDA435 proliferation, in words” value is given as “strongly inhibited proliferation”. The “fold less active than native thrombospondin” value in experiment [7] (from dose response curves, 0.5% fetal calf serum and bFGF) was “approximately 10 fold”. Besides, the “activity relative to native thrombospondin on a subunit molar basis” value in experiment [7] (subunit molar basis) is recorded as “about three-fold less active”.

Broadly, the IC50 is the point on the concentration scale where inhibition reaches its midpoint.
